Laboratory results: PubChem BioAssay AID1963860 (Molecular Pharmacology Branch, DTP, NCI, 2024)

System: CN0375-F725-PDC KRAS spheroid viability
Assay: Anticancer human tumor CN0375-F725-PDC patient-derived colon carcinoma cell line growth inhibition [KRAS2]
Conditions: spheroids with HUVEC and MSC; for IC50: curve of first compound; for viability, T/C: stronger effect = lower value
How it was run: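 Combination screen of spheroid viability in tumor-cell co-cultures with endothelial (HUVEC) and mesenchymal stem cell stroma. Each agent was tested in half-log dilutions, topping at clinical Cmax or at 10 microM without a known Cmax.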

[1] = second compound 0.1 µM, first compound 0.0316 µM
[2] = second compound 0.1 µM, first compound 0.1 µM
[3] = second compound 0.1 µM, first compound 0.316 µM
[4] = second compound 0.1 µM, first compound 1 µM
[5] = second compound 0.1 µM, first compound 3.16 µM
[6] = second compound 0.1 µM, first compound 10 µM
[7] = second compound 0.316 µM, first compound 0.0316 µM
[8] = second compound 0.316 µM, first compound 0.1 µM
[9] = second compound 0.316 µM, first compound 0.316 µM
[10] = second compound 0.316 µM, first compound 1 µM
[11] = second compound 0.316 µM, first compound 3.16 µM
[12] = second compound 0.316 µM, first compound 10 µM
[13] = second compound 1 µM, first compound 0.0316 µM
[14] = second compound 1 µM, first compound 0.1 µM
[15] = second compound 1 µM, first compound 0.316 µM
[16] = second compound 1 µM, first compound 1 µM
[17] = second compound 1 µM, first compound 3.16 µM
[18] = second compound 1 µM, first compound 10 µM
[19] = second compound 3.16 µM, first compound 0.0316 µM
[20] = second compound 3.16 µM, first compound 0.1 µM
[21] = second compound 3.16 µM, first compound 0.316 µM
[22] = second compound 3.16 µM, first compound 1 µM
[23] = second compound 3.16 µM, first compound 3.16 µM
[24] = second compound 3.16 µM, first compound 10 µM
[25] = second compound 10 µM, first compound 0.0316 µM
[26] = second compound 10 µM, first compound 0.1 µM
[27] = second compound 10 µM, first compound 0.316 µM
[28] = second compound 10 µM, first compound 1 µM
[29] = second compound 10 µM, first compound 3.16 µM
[30] = second compound 10 µM, first compound 10 µM
[31] = second compound 0.1 µM, first compound 0.000316 µM
[32] = second compound 0.1 µM, first compound 0.001 µM
[33] = second compound 0.1 µM, first compound 0.00316 µM
[34] = second compound 0.1 µM, first compound 0.01 µM
[35] = second compound 0.316 µM, first compound 0.000316 µM
[36] = second compound 0.316 µM, first compound 0.001 µM
[37] = second compound 0.316 µM, first compound 0.00316 µM
[38] = second compound 0.316 µM, first compound 0.01 µM
[39] = second compound 1 µM, first compound 0.000316 µM
[40] = second compound 1 µM, first compound 0.001 µM
[41] = second compound 1 µM, first compound 0.00316 µM
[42] = second compound 1 µM, first compound 0.01 µM
[43] = second compound 3.16 µM, first compound 0.000316 µM
[44] = second compound 3.16 µM, first compound 0.001 µM
[45] = second compound 3.16 µM, first compound 0.00316 µM
[46] = second compound 3.16 µM, first compound 0.01 µM
[47] = second compound 10 µM, first compound 0.000316 µM
[48] = second compound 10 µM, first compound 0.001 µM
[49] = second compound 10 µM, first compound 0.00316 µM
[50] = second compound 10 µM, first compound 0.01 µM
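Note: spheroids exposed to agents for 7 days.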

## CC(C)NCC(C(=O)N1CCN(c2ncnc3c2C(C)CC3O)CC1)c1ccc(Cl)cc1 (stereo not given) + COc1cc2nc(C)nc(NC(C)c3cc(N)cc(C(F)(F)F)c3)c2cc1OC1CCOC1
Second compound 0.1 µM
  IC50: > 10 µM
Second compound 0.316 µM
  IC50: > 10 µM
Second compound 1 µM
  IC50: > 10 µM
Second compound 3.16 µM
  IC50: > 10 µM
Second compound 10 µM
  IC50: < 0.0316 µM
[1]
  viability, T/C: 100%
[2]
  viability, T/C: 100%
[3]
  viability, T/C: 87.7%
[4]
  viability, T/C: 88.3%
[5]
  viability, T/C: 84.8%
[6]
  viability, T/C: 74.4%
[7]
  viability, T/C: 95.5%
[8]
  viability, T/C: 97.3%
[9]
  viability, T/C: 88.5%
[10]
  viability, T/C: 85.1%
[11]
  viability, T/C: 81.3%
[12]
  viability, T/C: 71.1%
[13]
  viability, T/C: 93.6%
[14]
  viability, T/C: 93.3%
[15]
  viability, T/C: 85.2%
[16]
  viability, T/C: 80.7%
[17]
  viability, T/C: 74.4%
[18]
  viability, T/C: 65.5%
[19]
  viability, T/C: 88.5%
[20]
  viability, T/C: 81.7%
[21]
  viability, T/C: 76.9%
[22]
  viability, T/C: 66.9%
[23]
  viability, T/C: 62.4%
[24]
  viability, T/C: 50.5%
[25]
  viability, T/C: 16.1%
[26]
  viability, T/C: 18.6%
[27]
  viability, T/C: 14.8%
[28]
  viability, T/C: 10.8%
[29]
  viability, T/C: 8.1%
[30]
  viability, T/C: 5.67%

## CC(C)n1nc(-c2ccc3oc(N)nc3c2)c2c(N)ncnc21 + COc1cc2nc(C)nc(NC(C)c3cc(N)cc(C(F)(F)F)c3)c2cc1OC1CCOC1
Second compound 0.1 µM
  IC50: 0.0591 µM
Second compound 0.316 µM
  IC50: 0.049 µM
Second compound 1 µM
  IC50: 0.0365 µM
Second compound 3.16 µM
  IC50: 0.0259 µM
Second compound 10 µM
  IC50: < 0.000316 µM
[31]
  viability, T/C: 101%
[32]
  viability, T/C: 93.6%
[33]
  viability, T/C: 78%
[34]
  viability, T/C: 70.4%
[1]
  viability, T/C: 54.5%
[2]
  viability, T/C: 45.5%
[35]
  viability, T/C: 95.1%
[36]
  viability, T/C: 89.7%
[37]
  viability, T/C: 77.6%
[38]
  viability, T/C: 66%
[7]
  viability, T/C: 54.2%
[8]
  viability, T/C: 43.7%
[39]
  viability, T/C: 90.5%
[40]
  viability, T/C: 88.6%
[41]
  viability, T/C: 76%
[42]
  viability, T/C: 66.4%
[13]
  viability, T/C: 50.2%
[14]
  viability, T/C: 42.1%
[43]
  viability, T/C: 85.2%
[44]
  viability, T/C: 80.8%
[45]
  viability, T/C: 72.9%
[46]
  viability, T/C: 59%
[19]
  viability, T/C: 48.5%
[20]
  viability, T/C: 40.8%
[47]
  viability, T/C: 13.7%
[48]
  viability, T/C: 14.8%
[49]
  viability, T/C: 25.4%
[50]
  viability, T/C: 22%
[25]
  viability, T/C: 18.1%
[26]
  viability, T/C: 13.7%

## CC1(C)CCC(CN2CCN(c3ccc(C(=O)NS(=O)(=O)c4ccc(NCC5CCOCC5)c([N+](=O)[O-])c4)c(Oc4cnc5[nH]ccc5c4)c3)CC2)=C(c2ccc(Cl)cc2)C1 + COc1cc2nc(C)nc(NC(C)c3cc(N)cc(C(F)(F)F)c3)c2cc1OC1CCOC1
Second compound 0.1 µM
  IC50: 6.37 µM
Second compound 0.316 µM
  IC50: 5.61 µM
Second compound 1 µM
  IC50: 2.8 µM
Second compound 3.16 µM
  IC50: 2.08 µM
Second compound 10 µM
  IC50: < 0.0316 µM
[1]
  viability, T/C: 99.9%
[2]
  viability, T/C: 100%
[3]
  viability, T/C: 92.4%
[4]
  viability, T/C: 97.4%
[5]
  viability, T/C: 66.2%
[6]
  viability, T/C: 39.6%
[7]
  viability, T/C: 93.7%
[8]
  viability, T/C: 100%
[9]
  viability, T/C: 94.3%
[10]
  viability, T/C: 93.7%
[11]
  viability, T/C: 59.4%
[12]
  viability, T/C: 40.6%
[13]
  viability, T/C: 93.1%
[14]
  viability, T/C: 88%
[15]
  viability, T/C: 94.6%
[16]
  viability, T/C: 87.5%
[17]
  viability, T/C: 45.6%
[18]
  viability, T/C: 27.2%
[19]
  viability, T/C: 81.4%
[20]
  viability, T/C: 85.4%
[21]
  viability, T/C: 91.8%
[22]
  viability, T/C: 74.6%
[23]
  viability, T/C: 36%
[24]
  viability, T/C: 28.6%
[25]
  viability, T/C: 11.2%
[26]
  viability, T/C: 14.5%
[27]
  viability, T/C: 19%
[28]
  viability, T/C: 26.2%
[29]
  viability, T/C: 27.2%
[30]
  viability, T/C: 18.3%

## COc1cc2nccc(Oc3ccc(NC(=O)C4(C(=O)Nc5ccc(F)cc5)CC4)cc3)c2cc1OC + COc1cc2nc(C)nc(NC(C)c3cc(N)cc(C(F)(F)F)c3)c2cc1OC1CCOC1
Second compound 0.1 µM
  IC50: > 10 µM
Second compound 0.316 µM
  IC50: 6.74 µM
Second compound 1 µM
  IC50: 3.8 µM
Second compound 3.16 µM
  IC50: 1.04 µM
Second compound 10 µM
  IC50: < 0.0316 µM
[1]
  viability, T/C: 102%
[2]
  viability, T/C: 99.5%
[3]
  viability, T/C: 89.8%
[4]
  viability, T/C: 79.3%
[5]
  viability, T/C: 56.6%
[6]
  viability, T/C: 59.6%
[7]
  viability, T/C: 100%
[8]
  viability, T/C: 96.6%
[9]
  viability, T/C: 90.2%
[10]
  viability, T/C: 74.8%
[11]
  viability, T/C: 52.6%
[12]
  viability, T/C: 48.7%
[13]
  viability, T/C: 88.4%
[14]
  viability, T/C: 91.6%
[15]
  viability, T/C: 83.8%
[16]
  viability, T/C: 75%
[17]
  viability, T/C: 50.3%
[18]
  viability, T/C: 44.2%
[19]
  viability, T/C: 76.2%
[20]
  viability, T/C: 81.6%
[21]
  viability, T/C: 70.4%
[22]
  viability, T/C: 52.4%
[23]
  viability, T/C: 16.7%
[24]
  viability, T/C: 9.46%
[25]
  viability, T/C: 15.8%
[26]
  viability, T/C: 4.08%
[27]
  viability, T/C: 7.08%
[28]
  viability, T/C: 16.8%
[29]
  viability, T/C: 0.92%
[30]
  viability, T/C: 0.22%

## Cn1ncnc1[C@H]1c2n[nH]c(=O)c3cc(F)cc(c23)N[C@@H]1c1ccc(F)cc1 + COc1cc2nc(C)nc(NC(C)c3cc(N)cc(C(F)(F)F)c3)c2cc1OC1CCOC1
Second compound 0.1 µM
  IC50: > 0.1 µM
Second compound 0.316 µM
  IC50: > 0.1 µM
Second compound 1 µM
  IC50: > 0.1 µM
Second compound 3.16 µM
  IC50: > 0.1 µM
Second compound 10 µM
  IC50: < 0.000316 µM
[31]
  viability, T/C: 103%
[32]
  viability, T/C: 98.8%
[33]
  viability, T/C: 96.7%
[34]
  viability, T/C: 97.9%
[1]
  viability, T/C: 98%
[2]
  viability, T/C: 94.9%
[35]
  viability, T/C: 97.2%
[36]
  viability, T/C: 104%
[37]
  viability, T/C: 94.2%
[38]
  viability, T/C: 92.5%
[7]
  viability, T/C: 96.4%
[8]
  viability, T/C: 93.1%
[39]
  viability, T/C: 97.7%
[40]
  viability, T/C: 105%
[41]
  viability, T/C: 86.9%
[42]
  viability, T/C: 86.7%
[13]
  viability, T/C: 88.8%
[14]
  viability, T/C: 86.4%
[43]
  viability, T/C: 88.6%
[44]
  viability, T/C: 94%
[45]
  viability, T/C: 84.1%
[46]
  viability, T/C: 76.8%
[19]
  viability, T/C: 79.4%
[20]
  viability, T/C: 76.8%
[47]
  viability, T/C: 11.7%
[48]
  viability, T/C: 14%
[49]
  viability, T/C: 6.8%
[50]
  viability, T/C: 13.3%
[25]
  viability, T/C: 5.32%
[26]
  viability, T/C: 10.4%
